# Experimental data taken from patent US20230123334A1, “AMINO LIPID COMPOUND, PREPARATION METHOD THEREFOR, AND APPLICATION THEREOF” (SHENZHEN SHENXIN BIOTECHNOLOGY CO., LTD., priority 2020, published 2023).
# Tested on: HEK293 cells
# Experiment: Preliminary screening as mRNA vectors, EGFP mRNA transfection of HEK293 cells
# Assay type: cell-based
# Settings: EGFP mRNA 50 ng per well, 96-well plates; percentage of GFP fluorescent cells relative to total number of cells (Hoechst)
# In short: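 HEK293 cells in DMEM plus 10% FBS transfected in 96-well format with 50 ng EGFP mRNA per well; Lipofectamine2000 served as positive control. Read-out is the percentage of GFP-fluorescent cells among total cells, counted by Hoechst nuclear stain.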
row,SMILES,Absolute mRNA transfection efficiency in HEK293 cells [%]
1,CCCCCCCCCCCCCCSc1nc(NCCCCCC)nc(NCCCN2CCN(C)CC2)n1 [Compound D9S14N6],27.2
2,CCCCCCCCCCCCSc1nc(NCCN2CCCCC2)nc(SCCCCCCCC)n1 [Compound D4S8S12],1.0
3,CCCCCCCCCCCCCCCCCCNc1nc(NCCCN(C)C)nc(SCCCCCCCCCCCCCC)n1 [Compound D6S14N18],0.7
4,CCCCCCCCCCCNc1nc(NCCCN2CCOCC2)nc(SCCCCCCCCC)n1 [Compound D8S9N11],23.5
5,CCCCCCCCCCCCCCCCCCSc1nc(NCCCCCCC)nc(NCCN2CCCCC2)n1 [Compound D4S18N7],0.3
6,CCCCCCCCCCCCCCCCCCNc1nc(NCC2CCN(C)CC2)nc(SCCCCCCCCCCC)n1 [Compound D10S11N18],9.6
7,CCCCCCCCCCCCNc1nc(NCCCN(C)C)nc(SCCCCCCCCCC)n1 [Compound D6S10N12],25.4
8,CCCCCCSc1nc(NCCN2CCOCC2)nc(SCCCCCC)n1 [Compound D2S6S6],2.2
9,CCCCCCCCCCCCCCCSc1nc(NCCN2CCN(C)CC2)nc(N(CCCCCCCCCCCC)CCCCCCCCCCCC)n1 [D5S15^2N12],0.9
10,CCCCCCCCCCCCCCCCCCNc1nc(NCCN2CCCC2)nc(SCCCCCCCC)n1 [Compound D3S8N18],28.6
11,CCCCCCCCCCCCNc1nc(NCCN(C)C)nc(SCCCCCCC)n1 [Compound D1S7N12],5.4
12,CCCCCCCNc1nc(NCCN2CCCC2)nc(SCCCCCC)n1 [Compound D3S6N7],0.2
13,CCCCCCCCCCCCCCCCCCNc1nc(NCC2CCN(C)CC2)nc(SCCCCCCC)n1 [Compound D10S7N18],45.8
14,CCCCCCCCCCCCCCCSc1nc(NCCCCCCC)nc(NCCN(C)C)n1 [Compound D1S15N7],66.1
15,CCCCCCCCCCSc1nc(NCCN2CCCCC2)nc(SCCCCCC)n1 [Compound D4S6S10],0.3
16,CCCCCCCCCCCCCCCSc1nc(NCCCCCCCCCCC)nc(NCCCN2CCN(C)CC2)n1 [Compound D9S15N11],9.2
17,CCCCCCCCCCCCCCCCSc1nc(NCCCCCCCC)nc(NCCN2CCCCC2)n1 [Compound D4S16N8],1.3
18,CCCCCCCCCCCSc1nc(NCCCCCC)nc(NCCN2CCOCC2)n1 [Compound D2S11N6],5.4
19,CCCCCCCCCCSc1nc(NCCCCCC)nc(NCCN2CCCCC2)n1 [Compound D4S10N6],0.1
20,CCCCCCCCCCCCCCCSc1nc(NCCCCCCCCCCCC)nc(NCC2CCN(C)CC2)n1 [Compound D10S15N12],5.1
21,CCCCCCCCCCCCCCSc1nc(NCCCCCCCCCCCCC)nc(NCCCN2CCOCC2)n1 [Compound D8S14N13],1.4
22,CCCCCCCCCCCNc1nc(NCCCN2CCN(C)CC2)nc(SCCCCCCCCCCC)n1 [Compound D9S11N11],24.5
23,CCCCCCCCCCCCCCCNc1nc(NCCN2CCOCC2)nc(SCCCCCCCC)n1 [Compound D2S8N15],5.5

row,SMILES,Absolute mRNA transfection efficiency in HEK293 cells [%]
1,CCCCCCCCCCCCCNc1nc(NCCCN(C)C)nc(SCCCCCC)n1 [Compound D6S6N13],3.0
2,CCCCCCCCCCCCCNc1nc(NCCN2CCCC2)nc(SCCCCCCCCCCCC)n1 [Compound D3S12N13],0.3
3,CCCCCCCCCCCCCCCCNc1nc(NCCCN(C)C)nc(SCCCCCCCCCCCC)n1 [Compound D6S12N16],1.9
4,CCCCCCCCCCCCCCCSc1nc(NCCN2CCCC2)nc(SCCCCCC)n1 [Compound D3S6S15],12.0
5,CCCCCCCCCNc1nc(NCCCN2CCN(C)CC2)nc(SCCCCCC)n1 [Compound D9S6N9],0.9
6,CCCCCCCCCCCCCCCSc1nc(NCCCCCCCCCCCC)nc(NCCN2CCN(C)CC2)n1 [Compound D5S15N12],4.3
7,CCCCCCCCCCCCCCCCCCNc1nc(NCC2CCN(C)CC2)nc(SCCCCCCCCCC)n1 [Compound D10S10N18],6.0
8,CCCCCCCCCSc1nc(NCCN2CCCCC2)nc(SCCCCCCC)n1 [Compound D4S7S9],3.7
9,CCCCCCCCCCCCN(CCCCCCCCCCCC)c1nc(NCCN(C)C)nc(SCCCCCCC)n1 [D1S7^2N12],0.7
10,CCCCCCCCCNc1nc(NCCCN(C)C)nc(SCCCCCCCCC)n1 [Compound D6S9N9],19.8
11,CCCCCCCCCCCCNc1nc(NCCN(C)C)nc(SCCCCCCCCCCCC)n1 [Compound D1S12N12],1.7
12,CCCCCCCCCSc1nc(NCCN2CCN(C)CC2)nc(SCCCCCCCC)n1 [Compound D5S8S9],36.1
13,CCCCCCCCCCCCCCCCCCSc1nc(NCCN(CC)CC)nc(SCCCCCC)n1 [Compound D7S6S18],9.5
14,CCCCCCCCCCCCCNc1nc(NCC2CCN(C)CC2)nc(SCCCCCCCCC)n1 [Compound D10S9N13],75.8
15,CCCCCCCCCCCCCCCCCCSc1nc(NCCCCCC)nc(NCCCN2CCOCC2)n1 [Compound D8S18N6],1.0
16,CCCCCCCCCCCCCCCCSc1nc(NCCCCCCCCCCC)nc(NCCCN2CCOCC2)n1 [Compound D8S16N11],3.6
17,CCCCCCCCCCCCCCCCSc1nc(NCCCCCCC)nc(NCC2CCN(C)CC2)n1 [Compound D10S16N7],29.6
18,CCCCCCCCCCCCCCCCNc1nc(NCCN2CCCCC2)nc(SCCCCCCCCCCCCCCC)n1 [Compound D4S15N16],4.8
19,CCCCCCCCCCCCCCCCCCNc1nc(NCCCN2CCN(C)CC2)nc(SCCCCCCC)n1 [Compound D9S7N18],37.1
20,CCCCCCCCCCSc1nc(NCCN(C)C)nc(SCCCCCC)n1 [Compound D1S6S10],0.7
21,CCCCCCCCSc1nc(NCCCCCC)nc(NCCN2CCCC2)n1 [Compound D3S8N6],2.6
22,CCCCCCCCCCCCCCCSc1nc(NCC2CCN(C)CC2)nc(SCCCCCCC)n1 [Compound D10S7S15],90.4
23,CCCCCCCCCCCCCCSc1nc(NCCCCCCCCCCC)nc(NCCN2CCCC2)n1 [Compound D3S14N11],30.9

row,SMILES,Absolute mRNA transfection efficiency in HEK293 cells [%]
1,CCCCCCCCCNc1nc(NCCN(CC)CC)nc(SCCCCCCCC)n1 [Compound D7S8N9],9.5
2,CCCCCCCCCCCCCCCSc1nc(NCCCN2CCOCC2)nc(SCCCCCC)n1 [Compound D8S6S15],2.8
3,CCCCCCCCCCCCCCCCCCNc1nc(NCCN(C)C)nc(SCCCCCCCC)n1 [Compound D1S8N18],19.3
4,CCCCCCCCCCCCN(CCCCCCCCCCCC)c1nc(NCCN2CCCC2)nc(SCCCCCCCC)n1 [D3S8^2N12],0.9
5,CCCCCCCCCCCCCNc1nc(NCCN2CCOCC2)nc(SCCCCCCCCCC)n1 [Compound D2S10N13],0.2
6,CCCCCCCCCCCCCNc1nc(NCC2CCN(C)CC2)nc(SCCCCCCCCCCCC)n1 [Compound D10S12N13],1.8
7,CCCCCCCCCNc1nc(NCC2CCN(C)CC2)nc(SCCCCCCCC)n1 [Compound D10S8N9],30.2
8,CCCCCCCCCCCCCCCCSc1nc(NCCCCCC)nc(NCCN2CCCCC2)n1 [Compound D4S16N6],2.6
9,CCCCCCCCCCCCCCCNc1nc(NCCN(C)C)nc(SCCCCCCCCC)n1 [Compound D1S9N15],27.4
10,CCCCCCCCCCCNc1nc(NCCCN(C)C)nc(SCCCCCCCCCC)n1 [Compound D6S10N11],10.0
11,CCCCCCCCCCCCCCCNc1nc(NCCCN2CCN(C)CC2)nc(SCCCCCCCCC)n1 [Compound D9S9N15],6.3
12,CCCCCCCCCCCCCNc1nc(NCCN2CCCCC2)nc(SCCCCCCCCCCC)n1 [Compound D4S11N13],15.4
13,CCCCCCCCNc1nc(NCCN2CCCCC2)nc(SCCCCCC)n1 [Compound D4S6N8],0.3
14,CCCCCCCCNc1nc(NCCN(C)C)nc(SCCCCCCC)n1 [Compound D1S7N8],2.0
15,CCCCCCCCNc1nc(NCCN2CCN(C)CC2)nc(SCCCCCC)n1 [Compound D5S6N8],5.9
16,CCCCCCCCCCCCCCCCNc1nc(NCCCN2CCOCC2)nc(SCCCCCCCCCCCCCCCC)n1 [Compound D8S16N16],0.0
17,CCCCCCCCCCCCCCCNc1nc(NCCN2CCCC2)nc(SCCCCCCCCCCCCCC)n1 [Compound D3S14N15],3.6
18,CCCCCCCCCCCCN(CCCCCCCCCCCC)c1nc(NCCCN2CCOCC2)nc(SCCCCCCCCCCC)n1 [D8S11^2N12],0.4
19,CCCCCCCCCCCCCCCCSc1nc(NCCCCCCCCCCCCCCC)nc(NCCN(CC)CC)n1 [Compound D7S16N15],1.1
20,CCCCCCCCCCCCN(CCCCCCCCCCCC)c1nc(NCCN2CCCCC2)nc(SCCCCCCCCCCC)n1 [D4S11^2N12],0.5
21,CCCCCCCCCCCNc1nc(NCCCN(C)C)nc(SCCCCCCCCCCC)n1 [Compound D6S11N11],35.5
